Source: ChEMBL document CHEMBL5291721, “A preclinical secondary pharmacology resource illuminates target-adverse drug reaction associations of marketed drugs” (Nat Commun, 2023)

Legend:
[1] = target: T1, Estrogen receptor (Homo sapiens, UniProt P03372)
T1 sequence (P03372 whole entry): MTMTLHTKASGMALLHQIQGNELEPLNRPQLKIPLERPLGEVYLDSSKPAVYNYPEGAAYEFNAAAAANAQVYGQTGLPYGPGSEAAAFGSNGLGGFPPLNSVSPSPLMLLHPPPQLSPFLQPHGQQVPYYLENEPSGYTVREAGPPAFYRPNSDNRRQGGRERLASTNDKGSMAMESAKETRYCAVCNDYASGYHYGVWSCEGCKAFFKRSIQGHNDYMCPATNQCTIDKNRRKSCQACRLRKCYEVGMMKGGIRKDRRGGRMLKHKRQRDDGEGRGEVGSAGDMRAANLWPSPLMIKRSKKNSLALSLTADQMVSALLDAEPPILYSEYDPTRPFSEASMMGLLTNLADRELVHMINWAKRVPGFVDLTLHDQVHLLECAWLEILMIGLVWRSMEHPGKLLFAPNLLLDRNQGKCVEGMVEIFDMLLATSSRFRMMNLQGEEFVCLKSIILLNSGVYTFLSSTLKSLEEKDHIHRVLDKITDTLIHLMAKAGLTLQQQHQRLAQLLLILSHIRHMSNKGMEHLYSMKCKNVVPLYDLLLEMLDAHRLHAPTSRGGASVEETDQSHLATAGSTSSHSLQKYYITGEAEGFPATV

[2] = target: 5-hydroxytryptamine receptor 2B (Homo sapiens, UniProt P41595); type: functional, cell-based
[3] = target: Motilin receptor (Homo sapiens, UniProt O43193)
[4] = target: T2, Type-1 angiotensin II receptor (Homo sapiens, UniProt P30556)
T2 sequence (P30556 whole entry): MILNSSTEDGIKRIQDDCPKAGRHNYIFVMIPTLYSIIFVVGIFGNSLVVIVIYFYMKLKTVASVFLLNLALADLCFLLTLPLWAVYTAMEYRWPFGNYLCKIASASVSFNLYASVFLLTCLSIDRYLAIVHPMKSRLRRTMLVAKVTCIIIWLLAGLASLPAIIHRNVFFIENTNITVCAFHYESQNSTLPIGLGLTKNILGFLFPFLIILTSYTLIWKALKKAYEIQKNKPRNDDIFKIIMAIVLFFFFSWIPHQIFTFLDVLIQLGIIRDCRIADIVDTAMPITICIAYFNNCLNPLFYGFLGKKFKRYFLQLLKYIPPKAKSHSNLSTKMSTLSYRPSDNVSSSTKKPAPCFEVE

[5] = target: Sodium-dependent noradrenaline transporter (Homo sapiens, UniProt P23975)
[6] = target: Cannabinoid receptor 1 (Homo sapiens, UniProt P21554); type: functional, cell-based
[7] = target: Histamine H1 receptor (Homo sapiens, UniProt P35367)
[8] = target: T3, Alpha-1A adrenergic receptor (Homo sapiens, UniProt P35348); type: functional, cell-based
T3 sequence (P35348 whole entry): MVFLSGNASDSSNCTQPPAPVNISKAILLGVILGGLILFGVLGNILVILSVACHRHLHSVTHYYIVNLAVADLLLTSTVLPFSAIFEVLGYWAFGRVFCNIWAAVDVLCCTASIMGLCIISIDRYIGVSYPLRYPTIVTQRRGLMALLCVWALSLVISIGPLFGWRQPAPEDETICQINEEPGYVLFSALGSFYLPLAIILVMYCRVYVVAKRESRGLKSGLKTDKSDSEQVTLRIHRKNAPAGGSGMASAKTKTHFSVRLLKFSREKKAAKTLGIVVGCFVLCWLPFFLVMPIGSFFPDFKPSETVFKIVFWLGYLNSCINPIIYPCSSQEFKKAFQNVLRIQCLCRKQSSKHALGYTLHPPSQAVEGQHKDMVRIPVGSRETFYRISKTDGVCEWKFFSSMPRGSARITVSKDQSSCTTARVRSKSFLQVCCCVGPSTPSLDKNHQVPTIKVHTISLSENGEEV
Also: assay procedure not described here.

Histamine H1 receptor, sequence (P35367 whole entry): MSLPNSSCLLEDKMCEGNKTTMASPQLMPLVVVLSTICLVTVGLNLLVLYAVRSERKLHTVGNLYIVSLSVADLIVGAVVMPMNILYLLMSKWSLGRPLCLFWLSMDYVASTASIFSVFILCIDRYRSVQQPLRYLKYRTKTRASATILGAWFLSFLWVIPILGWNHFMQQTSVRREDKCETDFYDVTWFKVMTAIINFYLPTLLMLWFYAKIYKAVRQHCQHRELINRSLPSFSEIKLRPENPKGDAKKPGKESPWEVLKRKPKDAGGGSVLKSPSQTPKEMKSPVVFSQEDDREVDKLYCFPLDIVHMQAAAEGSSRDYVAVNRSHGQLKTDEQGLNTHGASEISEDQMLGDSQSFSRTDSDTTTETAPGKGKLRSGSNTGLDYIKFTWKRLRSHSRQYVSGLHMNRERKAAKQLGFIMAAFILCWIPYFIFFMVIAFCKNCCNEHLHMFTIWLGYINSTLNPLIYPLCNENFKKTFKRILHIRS
Motilin receptor, sequence (O43193 whole entry): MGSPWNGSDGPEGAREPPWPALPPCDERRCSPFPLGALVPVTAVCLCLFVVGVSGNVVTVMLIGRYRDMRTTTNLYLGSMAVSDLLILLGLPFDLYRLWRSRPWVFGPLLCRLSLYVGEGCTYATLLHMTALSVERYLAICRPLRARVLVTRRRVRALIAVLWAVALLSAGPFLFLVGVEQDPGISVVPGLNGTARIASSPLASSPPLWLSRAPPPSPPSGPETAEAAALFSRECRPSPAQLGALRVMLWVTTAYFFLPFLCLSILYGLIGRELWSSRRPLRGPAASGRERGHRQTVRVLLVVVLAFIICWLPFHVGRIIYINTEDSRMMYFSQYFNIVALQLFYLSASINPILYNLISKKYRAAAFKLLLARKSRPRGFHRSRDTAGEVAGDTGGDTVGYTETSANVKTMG
Cannabinoid receptor 1, sequence (P21554 whole entry): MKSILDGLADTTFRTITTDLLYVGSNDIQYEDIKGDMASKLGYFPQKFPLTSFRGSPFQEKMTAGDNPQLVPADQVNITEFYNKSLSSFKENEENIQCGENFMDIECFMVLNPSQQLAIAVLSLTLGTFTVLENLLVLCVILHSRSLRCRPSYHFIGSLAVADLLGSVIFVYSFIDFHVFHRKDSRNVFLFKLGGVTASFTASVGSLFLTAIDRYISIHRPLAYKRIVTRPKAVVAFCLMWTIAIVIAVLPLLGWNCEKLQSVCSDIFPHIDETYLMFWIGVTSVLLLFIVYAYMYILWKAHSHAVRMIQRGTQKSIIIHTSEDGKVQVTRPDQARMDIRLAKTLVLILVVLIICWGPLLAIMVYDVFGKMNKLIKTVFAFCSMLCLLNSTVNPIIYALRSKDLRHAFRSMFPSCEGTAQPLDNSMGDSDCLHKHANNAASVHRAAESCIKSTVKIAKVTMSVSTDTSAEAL
Sodium-dependent noradrenaline transporter, sequence (P23975 whole entry): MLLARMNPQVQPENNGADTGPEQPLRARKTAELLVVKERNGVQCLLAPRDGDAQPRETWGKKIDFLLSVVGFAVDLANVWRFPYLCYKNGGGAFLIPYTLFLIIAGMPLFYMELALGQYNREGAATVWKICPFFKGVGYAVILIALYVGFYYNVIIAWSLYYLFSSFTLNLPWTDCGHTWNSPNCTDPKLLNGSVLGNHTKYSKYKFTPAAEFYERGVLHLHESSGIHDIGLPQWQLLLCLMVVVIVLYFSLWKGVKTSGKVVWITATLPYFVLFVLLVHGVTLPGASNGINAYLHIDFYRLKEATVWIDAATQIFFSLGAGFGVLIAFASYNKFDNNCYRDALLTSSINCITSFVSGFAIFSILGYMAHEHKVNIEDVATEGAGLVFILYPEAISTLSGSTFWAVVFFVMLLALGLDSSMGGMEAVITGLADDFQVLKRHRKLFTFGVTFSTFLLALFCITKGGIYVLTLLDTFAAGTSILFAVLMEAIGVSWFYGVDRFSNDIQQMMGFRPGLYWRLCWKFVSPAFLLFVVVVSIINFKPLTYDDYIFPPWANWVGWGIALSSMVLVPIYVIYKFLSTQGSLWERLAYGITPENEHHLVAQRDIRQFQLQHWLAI
5-hydroxytryptamine receptor 2B, sequence (P41595 whole entry): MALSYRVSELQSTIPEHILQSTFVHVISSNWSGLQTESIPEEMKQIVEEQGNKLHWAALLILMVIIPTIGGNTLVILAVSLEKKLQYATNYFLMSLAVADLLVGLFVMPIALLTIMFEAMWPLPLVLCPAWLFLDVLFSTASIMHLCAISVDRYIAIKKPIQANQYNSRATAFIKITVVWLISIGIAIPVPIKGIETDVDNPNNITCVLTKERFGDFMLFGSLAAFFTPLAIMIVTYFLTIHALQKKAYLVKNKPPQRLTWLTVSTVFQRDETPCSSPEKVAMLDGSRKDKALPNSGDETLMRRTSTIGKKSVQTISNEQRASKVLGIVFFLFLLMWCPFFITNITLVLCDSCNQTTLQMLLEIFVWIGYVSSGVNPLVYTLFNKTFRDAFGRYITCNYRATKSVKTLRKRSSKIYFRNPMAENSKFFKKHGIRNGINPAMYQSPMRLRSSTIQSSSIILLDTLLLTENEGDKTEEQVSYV

SMILES	AC50 [1]	AC50 [2]	AC50 [3]	AC50 [4]	AC50 [5]	AC50 [6]	AC50 [7]	AC50 [8]
CN1CC(=O)N2[C@H](c3ccc4c(c3)OCO4)c3[nH]c4ccccc4c3C[C@@H]2C1=O	> 30 µM	> 10 µM	> 10 µM	> 30 µM	> 30 µM	> 30 µM	> 10 µM	–
COc1ccc2cccc(CCNC(C)=O)c2c1 [AGOMELATINE]	> 30 µM	> 30 µM	> 10 µM	> 30 µM	> 10 µM	> 30 µM	> 10 µM	> 30 µM
CC(=O)OCC(=O)[C@@]12OC3(CCCC3)O[C@@H]1C[C@H]1[C@@H]3CCC4=CC(=O)C=C[C@]4(C)[C@@]3(F)[C@@H](O)C[C@@]12C [AMCINONIDE]	> 30 µM	> 10 µM	> 10 µM	> 10 µM	> 10 µM	–	> 10 µM	–
CN1CCc2cccc3c2[C@H]1Cc1ccc(O)c(O)c1-3 [APOMORPHINE]	1.47 µM	> 10 µM	> 10 µM	> 30 µM	> 30 µM	> 30 µM	15 µM	–
CC(C)c1c(C(=O)Nc2ccccc2)c(-c2ccccc2)c(-c2ccc(F)cc2)n1CC[C@@H](O)C[C@@H](O)CC(=O)O [ATORVASTATIN]	–	–	> 10 µM	> 30 µM	> 30 µM	> 30 µM	–	> 30 µM
NC(CO)C(=O)NNCc1ccc(O)c(O)c1O (stereo not drawn) [BENSERAZIDE]	1.72 µM	> 10 µM	> 10 µM	> 30 µM	> 30 µM	> 30 µM	> 10 µM	> 30 µM
CN(C)C(=O)OC1N=C(c2ccccc2)c2cc(Cl)ccc2N(C)C1=O (stereo not drawn) [CAMAZEPAM]	> 30 µM	> 10 µM	> 10 µM	> 30 µM	> 10 µM	> 30 µM	> 10 µM	> 30 µM
CC(C)C(=O)OCC(=O)[C@@]12O[C@H](C3CCCCC3)O[C@@H]1C[C@H]1[C@@H]3CCC4=CC(=O)C=C[C@]4(C)[C@H]3[C@@H](O)C[C@@]12C [CICLESONIDE]	> 30 µM	> 10 µM	> 10 µM	> 10 µM	> 10 µM	> 30 µM	> 10 µM	> 30 µM
CCOc1cc(N)c([N+](=O)[O-])cc1C(=O)NC1CCN(CC2CC=CCC2)CC1 (stereo not drawn) [CINITAPRIDE]	> 30 µM	> 30 µM	8.1 µM	> 30 µM	24 µM	> 30 µM	27 µM	> 30 µM
CN[C@@H](C)[C@H](O)c1ccccc1 [EPHEDRINE]	> 30 µM	> 10 µM	> 10 µM	> 30 µM	> 10 µM	> 30 µM	> 10 µM	–
CCNC(C)Cc1cccc(C(F)(F)F)c1 (stereo not drawn) [FENFLURAMINE]	> 30 µM	–	> 10 µM	> 30 µM	–	> 30 µM	–	–
CCN1CCC[C@H]1CNC(=O)c1cc(S(N)(=O)=O)ccc1OC [LEVOSULPIRIDE]	–	> 10 µM	> 10 µM	> 30 µM	> 30 µM	> 30 µM	–	> 30 µM
CC/C=C\C/C=C\C/C=C\CCCCCCCC(=O)O [LINOLENIC ACID]	–	> 30 µM	> 30 µM	> 30 µM	> 30 µM	> 30 µM	> 30 µM	> 30 µM
C#C[C@]1(O)CC[C@H]2[C@@H]3CCC4=CCCC[C@@H]4[C@H]3CC[C@@]21C [LYNESTRENOL]	> 30 µM	> 30 µM	> 30 µM	> 30 µM	> 30 µM	> 30 µM	> 30 µM	> 30 µM
C[C@]12CCC(=O)C=C1CC[C@@H]1[C@@H]2CC[C@@]2(C)[C@H]1CC[C@]2(C)O [METHYLTESTOSTERONE]	> 30 µM	> 30 µM	> 30 µM	> 30 µM	> 30 µM	> 30 µM	–	27 µM
Cc1cc(-c2ccccc2)nnc1NCCN1CCOCC1 [MINAPRINE]	> 30 µM	> 10 µM	> 10 µM	> 30 µM	> 10 µM	> 30 µM	> 10 µM	> 30 µM
NC(=O)C[S+]([O-])C(c1ccccc1)c1ccccc1 (stereo not drawn) [MODAFINIL]	> 30 µM	> 10 µM	> 10 µM	> 30 µM	> 10 µM	> 30 µM	–	> 30 µM
O=C(O)CCCc1ccccc1 [PHENYLBUTANOIC ACID]	–	> 30 µM	> 10 µM	> 10 µM	> 10 µM	–	> 30 µM	> 30 µM
CC(Cc1ccccc1)NCCC(c1ccccc1)c1ccccc1 (stereo not drawn) [PRENYLAMINE]	> 30 µM	> 10 µM	> 10 µM	> 30 µM	2.3 µM	–	7.9 µM	> 30 µM
CCN(CC)CCOC(=O)c1ccc(N)cc1 [PROCAINE]	–	> 10 µM	> 10 µM	> 30 µM	> 30 µM	> 30 µM	–	> 30 µM
C1COC(NC(C2CC2)C2CC2)=N1 [RILMENIDINE]	> 30 µM	> 10 µM	> 10 µM	> 30 µM	> 30 µM	> 30 µM	> 10 µM	–
Cc1c(C(=O)Nc2ccc(N3C[C@@H](C)O[C@@H](C)C3)nc2)cccc1-c1ccc(OC(F)(F)F)cc1 [SONIDEGIB]	> 30 µM	–	> 10 µM	> 30 µM	> 10 µM	–	> 10 µM	–
COc1ccc(C(=O)N2CCN(c3ccc4c(c3)CCC(=O)N4)CC2)cc1OC [VESNARINONE]	> 30 µM	> 30 µM	> 30 µM	> 30 µM	> 30 µM	> 30 µM	> 30 µM	> 30 µM
